SMILES strings stand for the structures.

The text below walks through data of patent US5985909A, “Cyclopropylindoles and their seco precursors, and their use as prodrugs” (Cancer Research Campaign Technology Limited, priority 1995, dated 1999).

For test [1], the system named is UV4 cells. Briefly: Activation of prodrug by E. coli nitroreductase: IC50 in UV4 cells without and with purified enzyme and NADH. Format: cell-based, Chinese hamster. The following applies: for IC50: 18 hours; for fold activation by the enzyme: ratio of IC50 without to IC50 with E. coli nitroreductase, 1080 min. The procedure: (§1) The compounds of Examples 1 and 3 show potent cytotoxicity to mammalian tumour cells, and are thus of interest as anticancer drugs. […] For these evaluations, AA8 and UV4 cells were maintained in exponential phase growth (doubling times 14 and 15 h respectively) using Alpha MEM containing fetal calf serum (10% v/v) without antibiotics, and were subcultured twice weekly by trypsinization. Bulk cultures were prepared for experiments by seeding cells in spinner flasks at 10^4 cells/mL in the above medium with addition of penicillin (100 IU/mL) and streptomycin (100 μg/mL). Cultures were initiated in 96-well microtiter trays to give 200 (AA8) or 300 (UV4) cells in 0.05 mL per well. After growth in a CO2 incubator for 24 h, drugs were added in culture medium, using serial two-fold dilutions to provide duplicate cultures at five different concentrations for each of eight drugs (plus eight controls) per tray. After 18 h drugs were removed by washing cultures three times with fresh medium, and the trays were incubated for a further 78 h. Cell density was then determined by staining with methylene blue as described [Finlay, G. J.; Baguley, B. C; Wilson, W. R. Anal. Biochem., 1984, 139, 272-277]. The IC50 was calculated as the drug concentration providing 50% inhibition of growth relative to the controls.
The compound was incubated with UV4 cells for 18 hours in 96-well plates under aerobic conditions. The UV4 cell line is a mutant Chinese hamster ovary fibroblast lines derived from the wild-type AA8. It is a UV complementation group 1 mutant, with a defect in the incision step of excision repair [Thompson, L. H. et al Proc. Natl. Acad. Sci (USA), 1980, 78, 3734; Thompson, L. H.; Carrono, A. V. In Cellular responses to DNA Damage, UCLA Symposium on Molecular and Cellular Biology, New Series, Vol. 11 (Freidberg, E. C.; Bridges, B. R.; Eds), Alan R. Liss: New York, 1983: p 125], and is highly sensitive to agents which form bulky DNA monoadducts or crosslinks [Hoy, C.A . et al Cancer Res., 1985, 45, 1737-1747].
The experiment was repeated but in addition purified E. coli nitroreductase enzyme (1 μg/mL) and NADH (1 mM, as cofactor) was added during the entire time of the incubation. […] This represents a 26-fold activation by the enzyme.

In the next test the test system is AA8 cells. Briefly: Growth inhibition (cytotoxicity) in AA8 cells, 18 h drug exposure, methylene blue staining. Format: cell-based, Chinese hamster. To be noted: Cricetulus griseus, CHO-AA8, 18 h exposure then 78 h growth, 50% inhibition of growth relative to controls. The procedure:
as §1

The test system of test [2] is UV4 cells. Briefly: Growth inhibition (cytotoxicity) in UV4 cells, 18 h drug exposure, methylene blue staining. Format: cell-based, Chinese hamster. The following applies: Cricetulus griseus, 18 h exposure then 78 h growth (Example 9), read-out: IC50 against UV4 cells. The protocol: as §1, with “controls. […]” for “controls.”
The conditions of test [3]: background statement, test system not given; cited from earlier work.
A further test has as its system human tumours. The following applies: background statement; cited from earlier work.

In the case of `COc1cc2cc(C(=O)N3CC(CCl)c4ccc([N+](=O)[O-])cc43)[nH]c2c(OC)c1OC` (stereo not shown) [example 1(h), 3-(Chloromethyl)-6-nitro-1-[(5',6',7'-trimethoxyindol-2'-yl)carbonyl]indoline], the IC50 in the test with UV4 cells [1] (aerobic conditions, no enzyme (Example 10), read-out: IC50 in UV4 cells in the absence of E. coli nitroreductase) worked out at 2340 nM; with UV4 cells [1] (aerobic, purified E. coli nitroreductase 1 μg/mL and NADH 1 mM during the entire incubation, read-out: IC50 in UV4 cells in the presence of E. coli nitroreductase), 6 nM. Moreover, in the test on UV4 cells [1], the “fold activation by the enzyme” value was found to be 400 fold.

Turning to `COc1cc2cc(C(=O)N3CC(CCl)c4ccc(NC(=O)OCc5ccc([N+](=O)[O-])cc5)cc43)[nH]c2c(OC)c1OC` (stereo not shown) [Example 3, 3-(Chloromethyl)-6-[(4"-nitrobenzyloxycarbonyl)amino]-1-[(5',6',7'-trimethoxyindol-2'-yl)carbonyl]indoline], the IC50 in the test with AA8 cells was 23000 nM; in the test with UV4 cells [2] it was 19600 nM; in the test on UV4 cells [1] (Cricetulus griseus, aerobic conditions, no enzyme (Example 10), read-out: IC50 in UV4 cells in the absence of E. coli nitroreductase) it was 11900 nM; in the test with UV4 cells [1] (Cricetulus griseus, aerobic, purified E. coli nitroreductase 1 μg/mL and NADH 1 mM during the entire incubation, read-out: IC50 in UV4 cells in the presence of E. coli nitroreductase), 460 nM. Also, the “fold activation by the enzyme” value in the test on UV4 cells [1] came to 26 fold.

Turning to `COc1c(O)c2c(c3cc(C(=O)N4CCc5c4c(O)c(OC)c4[nH]c(C(=O)N6CC7CC78C6=CC(=O)c6[nH]cc(C)c68)cc54)[nH]c13)CCN2C(N)=O` (stereo not shown) [CC-1065], the IC50 entry in test [3] is “low pM range”.

Regarding `COc1cc2cc(C(=O)N3CC(CCl)c4ccc(N)cc43)[nH]c2c(OC)c1OC` (stereo not shown) [Example 1, 6-Amino-3-(chloromethyl)-1-[(5',6',7'-trimethoxyindol-2'-yl)carbonyl]indoline], the IC50 in the test on AA8 cells stood at 320 nM; in the test with UV4 cells [2], 59 nM.

As for `COC(=O)c1c(C)[nH]c2c(OC(=O)N3CCN(C)CC3)cc3c(c12)[C@H](CBr)CN3C(=O)c1cc2cc(OC)c(OC)c(OC)c2[nH]1` [KW-2189], in the test on human tumours, the “anticancer activity against a range of human tumours” value was “show anticancer activity against a range of human tumours”.

`CCN(CC)c1ccc2cc(C(=O)Nc3ccc4[nH]c(C(=O)N5C[C@@H](CCl)c6c5cc(OC(=O)Nc5ccccc5)c5[nH]cc(C)c65)cc4c3)oc2c1` [carzelesin]: in the test on human tumours, the “anticancer activity against a range of human tumours” value was “show anticancer activity against a range of human tumours”.
